Key:
[1] = Sensory testing of sweetener acids in foods and drinks; details: in vivo
Description: Sweetener acids are the acids of known salts of high-intensity sweeteners such as acesulfame-K (=potassium salt of acesulfamic acid), sodium cyclamate or sodium saccharin. Sweetener acids which can be used are, for example, saccharin acid, cyclamic acid, glycyrrhicic acid and acesulfamic acid and also mixtures of two or more of these acids. Inventively preferred sweetener acids are acesulfamic acid, cyclamic acid and saccharin acid, and also mixtures of two or all three sweetener acids. On account of their low pKa of 1.5 to 2.5, the sweetener acids have never previously been considered as […]. […] The acid profile is balanced.
At the same time, the sweetener acids have, on a molar basis, a sweetening power equivalent to the corresponding sweetener salt. In addition to the described acid taste and sweet taste, no significant off-taste and aftertaste occur.

[2] = system: testers; test: Pairwise comparison test for identical acid taste
[3] = pH of the test solutions and drinks

Row | pH ([3]; Example 1, identical acid taste solutions (Table 3)) | pH ([3]; Example 4, identical acid taste solutions (Table 9)) | pH ([3]; Example 3, identical acid taste solutions (Table 7)) | Compound | time-intensity profile of the acid taste [1] | citric acid concentration of identical acid taste ([2]; Example 1, vs 203 mg/l acesulfamic acid, citric acid + 250 mg/l acesulfame-K, n=13) | acetic acid concentration of identical acid taste ([2]; Example 4, vs 203 mg/l acesulfamic acid, acetic acid + 250 mg/l acesulfame-K, n=14) | citric acid concentration of identical acid taste ([2]; Example 3, vs 200 mg/l saccharin acid, citric acid + 225 mg/l saccharin sodium, n=15)
1 | 3.07 | 3.07 | – | CC1=CC(=O)NS(=O)(=O)O1 [Acesulfamic acid] | comparable to that of malic acid | 137 mg/L | 190 mg/L | –
2 | – | – | 3.05 | O=C1NS(=O)(=O)c2ccccc21 [Saccharin acid, o-benzosulfimide] | – | – | – | 100 mg/L

Reference: patent publication US20060062747A1, “Use of sweetener acids for the microbiological stabilization of foodstuffs, cosmetic products, consumer goods and pharmaceutical productions” (Nutrinova Nutrition Specialties & Food Ingredients GmbH, priority 2002, published 2006)
